# In PMC9685055, “Biological activity of new bioactive steroids deriving from biotransformation of cortisone” (Microbial Cell Factories, 2022):
# What was measured:
# [1] = DPPH radical scavenging assay; settings: 0.1 mg/mL; Trolox equivalents
# Experimental: The DPPH assay was evaluated according to Aadil (2013) and Bonetti (2016). Fifty microliters of samples (cortisone, SCA and SCB) were added to […] of 0.06 mM of methanolic DPPH· radical solution. The reaction mixture was left to stand at room temperature in the dark for 15 min. The absorbance for the sample (Asample) was measured at 515 nm against methanol blank. A control was the absorbance of DPPH· solution.
# Methanolic solutions with different Trolox concentrations (0.05 − 1 mM/L) were analyzed for calibration curve. The free radical scavenging capacity was expressed as micromolar of Trolox equivalents (TEs)/g of SCA and SCB compounds using calibration curve.
# [2] = system: Salmonella typhimurium TA98; assay: Ames test (plate incorporation), strain TA98; assay type: cell-based
# Experimental: (§1) Mutagenicity assay was performed following the plate incorporation method with the histidine-requiring Salmonella typhimurium mutant TA98 and TA100 strains. All strains (100 µl per plate of fresh overnight cultures) were checked with and without the addition of 0.5 mL of a 5% S9 exogenous metabolic activator (S9 mix). The lyophilized post-mitochondrial supernatant S9 mix (Aroclor 1254-induced, Sprague–Dawley male rat liver in 0.154 M KCl solution, Molecular Toxicology, Inc., Boone, NC, USA), commonly used for the activation of pro-mutagens to mutagenic metabolites, was stored at− 80 °C before use. The concentration tested for all the samples were 1, 5, 10, 50, 100 µL/plate of a stock solution 100 mg/mL.
# (§2) A fully-grown culture of the appropriate tester strain (0.1 mL) was added to 2 mL Molten Top Agar (0.6% agar, 0.6% NaCl, 0.5 mM L-histidine/biotin solution) at 46 °C, together with 0.1 mL of each sample solution at different concentrations, and 0.5 mL S9 mix for assays with metabolic activation or 0.5 mL of phosphate buffer pH 7.4 to test without metabolic activation. The ingredients were thoroughly mixed and poured onto minimal glucose agar plates (1.5% agar in 2% Vogel–Bonner medium E with 5% glucose solution).
# (§3) DMSO was used as a negative control (100 µl/plate). Positive controls were prepared as follows: 2-aminoanthracene (2 µg/plate) and 2-nitrofluorene (2 µg/plate) for TA98 with and without metabolic activator (S9 mix) respectively; 2-aminoanthracene (2 µg/plate) and sodium azide (2 µg/plate) for TA100, with and without metabolic activator (S9 mix) respectively. The plates were incubated at 37 °C for 72 h and then the his^+ revertants were checked and counted using a Colony Counter 560 Suntex (Antibioticos, Italy). A sample was considered mutagenic when the observed number of colonies was at least twofold over the spontaneous level of revertants. All determinations were made in triplicate. Relative standard deviations were computed using the statistical software […] 6.0 (StatSoft Italia srl).
# [3] = molecular target: T1, cyclooxygenase (COX) (Ovis aries, UniProt P05979); assay: Cyclooxygenase inhibitory assay (fluorescence COX activity kit); assay type: biochemical; settings: purified COX preparation, 0.1, 1, 10 and 100 µM, 5 min at 25 °C
# T1 construct: purchased Cayman 700200
# T1 sequence (P05979 25-600): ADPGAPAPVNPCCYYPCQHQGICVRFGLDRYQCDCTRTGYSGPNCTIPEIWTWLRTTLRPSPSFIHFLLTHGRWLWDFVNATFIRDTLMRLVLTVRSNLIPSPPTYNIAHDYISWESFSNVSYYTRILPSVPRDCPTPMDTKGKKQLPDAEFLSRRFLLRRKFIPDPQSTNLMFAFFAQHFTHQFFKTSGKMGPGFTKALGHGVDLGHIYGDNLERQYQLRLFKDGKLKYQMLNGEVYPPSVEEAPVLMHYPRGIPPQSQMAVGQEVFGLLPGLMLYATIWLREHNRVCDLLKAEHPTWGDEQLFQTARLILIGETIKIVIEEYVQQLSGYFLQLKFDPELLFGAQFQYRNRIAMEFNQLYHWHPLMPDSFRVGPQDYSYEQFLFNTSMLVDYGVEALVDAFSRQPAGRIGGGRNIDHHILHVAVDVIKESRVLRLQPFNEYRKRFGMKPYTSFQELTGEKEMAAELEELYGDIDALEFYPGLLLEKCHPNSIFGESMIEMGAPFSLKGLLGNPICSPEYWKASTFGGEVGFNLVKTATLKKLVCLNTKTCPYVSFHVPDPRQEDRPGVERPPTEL
# Experimental: Cyclooxygenase (COX) activity assay was determined by using a fluorescence COX activity assay kit (Cayman, No. 700200) for detecting COX-1 and COX-2 activity in purified enzyme and tissue homogenate preparations. The assay was conducted by monitoring the appearance of fluorescent compound resofurin in accordance to the supplier recommendation. Aspirin (acetylsalicylic acid; 50 µM) served as positive control. The test compounds were dissolved in 1–2% DMSO (v/v) at 4 different concentrations (0.1, 1, 10 and 100 µM) and added to a purified COX preparation. A 1–2% DMSO solution was added to control plates. The plates were shaken for a few seconds and incubated for 5 min at 25 °C. The fluorescence was measured by using an excitation wavelength of 540 nm and an emission wavelength of 590 nm. Average fluorescent values were calculated for all the samples (n = 3/group) in order to determine the percentage of inhibition in respect to control (i.e. untreated) plates.
# [4] = system: primary cultures of rat cerebral cortex neurons; assay: Glutamate-induced neurotoxicity, MTT viability; assay type: cell-based; settings: 10 μM, added 15 min before glutamate; viability 24 h later
# Experimental: Primary cultures of cortical neurons have been prepared from 1 day-old male rats [41]. After re-suspension in the plating medium, the cells were counted and then plated on poly-l-lysine (5 μg/mL)-coated dishes at a density of 2.5 × 10^6 cells/dish or on poly-l-lysine (5 μg/mL)-coated 24-well plates at a density of 0.5 × 10^6 cells/dish. The plating medium consisted of Eagle's Basal Medium supplemented with 10% inactivated fetal calf serum, 25 mM KCl, 2 mM glutamine and 100 μg/mL gentamycine. […] Cytosine arabinoside (10 μM) was added within 24 h of plating to prevent glial cell proliferation [41]. The cultures were maintained for 8 days in vitro before experiments.
# The cultures were then returned to the incubator in their growth medium. 24 h later, the glutamate-induced neurotoxicity was evaluated by measuring the neuronal viability. The different drugs tested were added 15 min before glutamate exposure and were present until the end of the experiment.
# The integrity of mitochondrial enzymes in viable neurons was determined with a colorimetric assay using 3-[4,5-dimethylthial-2-yl]-3, 5-diphenyl-tetrazolinium bromide (MTT) salt, as described by Mosdam [42]. […] The precipitated dye was dissolved in isopropanol with 1 M HCl and colorimetrically (absorbance at 570 nm) quantified. The results were expressed as values of absorbance at 570 nm.
# [5] = system: Salmonella typhimurium TA100; assay: Ames test (plate incorporation), strain TA100; assay type: cell-based
# Experimental: as §1, §2, §3
# [6] = TA98, + S9, 1 µL/plate of a stock solution 100 mg/mL
# [7] = TA98, + S9, 5 µL/plate of a stock solution 100 mg/mL
# [8] = TA98, + S9, 10 µL/plate of a stock solution 100 mg/mL
# [9] = TA98, + S9, 50 µL/plate of a stock solution 100 mg/mL
# [10] = TA98, + S9, 100 µL/plate of a stock solution 100 mg/mL
# [11] = TA98, − S9, 1 µL/plate of a stock solution 100 mg/mL
# [12] = TA98, − S9, 5 µL/plate of a stock solution 100 mg/mL
# [13] = TA98, − S9, 10 µL/plate of a stock solution 100 mg/mL
# [14] = TA98, − S9, 50 µL/plate of a stock solution 100 mg/mL
# [15] = TA98, − S9, 100 µL/plate of a stock solution 100 mg/mL
# [16] = TA100, + S9, 1 µL/plate of a stock solution 100 mg/mL
# [17] = TA100, + S9, 5 µL/plate of a stock solution 100 mg/mL
# [18] = TA100, + S9, 10 µL/plate of a stock solution 100 mg/mL
# [19] = TA100, + S9, 50 µL/plate of a stock solution 100 mg/mL
# [20] = TA100, + S9, 100 µL/plate of a stock solution 100 mg/mL
# [21] = TA100, − S9, 1 µL/plate of a stock solution 100 mg/mL
# [22] = TA100, − S9, 5 µL/plate of a stock solution 100 mg/mL
# [23] = TA100, − S9, 10 µL/plate of a stock solution 100 mg/mL
# [24] = TA100, − S9, 50 µL/plate of a stock solution 100 mg/mL
# [25] = TA100, − S9, 100 µL/plate of a stock solution 100 mg/mL
structure (smiles),measurement,setting,value
"Cc1ccc(O)c2c1CCC1C3CC[C@](O)(C(=O)CO)[C@@]3(C)CC(=O)[C@@]21O (stereo partly drawn) [SCA, 1,9β,17,21‐tetrahydoxy‐4‐methyl‐19‐nor‐9β‐pregna‐1,3,5(10)‐trien‐11,20‐dione]",DPPH radical scavenging activity (in words),[1],high antioxidant property compared with the cortisone precursor
same,genotoxic activity (Ames test),[2],For none of the samples genotoxic activity emerged
same,average number of revertant colonies,[2]; [6],"43,7"
same,t/c (revertant colonies in treated plates/untreated plates),[2]; [6],1.2
same,average number of revertant colonies,[2]; [7],"43,3"
same,t/c (revertant colonies in treated plates/untreated plates),[2]; [7],1.2
same,average number of revertant colonies,[2]; [8],"41,3"
same,t/c (revertant colonies in treated plates/untreated plates),[2]; [8],1.1
same,average number of revertant colonies,[2]; [9],"39,3"
same,t/c (revertant colonies in treated plates/untreated plates),[2]; [9],1.1
same,average number of revertant colonies,[2]; [10],"41,3"
same,t/c (revertant colonies in treated plates/untreated plates),[2]; [10],1.1
same,average number of revertant colonies,[2]; [11],"17,7"
same,t/c (revertant colonies in treated plates/untreated plates),[2]; [11],0.9
same,average number of revertant colonies,[2]; [12],"23,7"
same,t/c (revertant colonies in treated plates/untreated plates),[2]; [12],1.1
same,average number of revertant colonies,[2]; [13],"23,3"
same,t/c (revertant colonies in treated plates/untreated plates),[2]; [13],1.1
same,average number of revertant colonies,[2]; [14],"25,3"
same,t/c (revertant colonies in treated plates/untreated plates),[2]; [14],1.2
same,average number of revertant colonies,[2]; [15],"20,3"
same,t/c (revertant colonies in treated plates/untreated plates),[2]; [15],1.0
same,effect on COX activity,[3],barely affected COX activity only at the lower concentration tested (0.1 µM)
same,"effect on glutamate-induced neurotoxicity (cell viability, MTT)",[4],partially reduced
same,genotoxic activity (Ames test),[5],For none of the samples genotoxic activity emerged
same,average number of revertant colonies,[5]; [16],179.3
same,t/c (revertant colonies in treated plates/untreated plates),[5]; [16],1.0
same,average number of revertant colonies,[5]; [17],181.7
same,t/c (revertant colonies in treated plates/untreated plates),[5]; [17],1.0
same,average number of revertant colonies,[5]; [18],185.3
same,t/c (revertant colonies in treated plates/untreated plates),[5]; [18],1.0
same,average number of revertant colonies,[5]; [19],205.7
same,t/c (revertant colonies in treated plates/untreated plates),[5]; [19],1.1
same,average number of revertant colonies,[5]; [20],194.3
same,t/c (revertant colonies in treated plates/untreated plates),[5]; [20],1.1
same,average number of revertant colonies,[5]; [21],163.0
same,t/c (revertant colonies in treated plates/untreated plates),[5]; [21],1.0
same,average number of revertant colonies,[5]; [22],164.3
same,t/c (revertant colonies in treated plates/untreated plates),[5]; [22],1.0
same,average number of revertant colonies,[5]; [23],158.0
same,t/c (revertant colonies in treated plates/untreated plates),[5]; [23],1.0
same,average number of revertant colonies,[5]; [24],157.0
same,t/c (revertant colonies in treated plates/untreated plates),[5]; [24],0.9
same,average number of revertant colonies,[5]; [25],166.7
same,t/c (revertant colonies in treated plates/untreated plates),[5]; [25],1.0
"Cc1ccc(O)c2c1CCC1C3CC[C@](O)([C@H](O)CO)[C@@]3(C)CC(=O)[C@@]21O (stereo partly drawn) [SCB, 1,9β,17,20β,21‐ pentahydoxy‐4‐methyl‐19‐nor‐9β‐pregna‐1,3,5(10)‐trien‐11‐one]",DPPH radical scavenging activity (in words),[1],high antioxidant property compared with the cortisone precursor
same,genotoxic activity (Ames test),[2],For none of the samples genotoxic activity emerged
same,average number of revertant colonies,[2]; [6],34
same,t/c (revertant colonies in treated plates/untreated plates),[2]; [6],1.1
same,average number of revertant colonies,[2]; [7],35
same,t/c (revertant colonies in treated plates/untreated plates),[2]; [7],1.1
same,average number of revertant colonies,[2]; [8],35
same,t/c (revertant colonies in treated plates/untreated plates),[2]; [8],1.1
same,average number of revertant colonies,[2]; [9],31
same,t/c (revertant colonies in treated plates/untreated plates),[2]; [9],1.0
same,average number of revertant colonies,[2]; [10],30
same,t/c (revertant colonies in treated plates/untreated plates),[2]; [10],0.9
same,average number of revertant colonies,[2]; [11],24
same,t/c (revertant colonies in treated plates/untreated plates),[2]; [11],1.0
same,average number of revertant colonies,[2]; [12],23
same,t/c (revertant colonies in treated plates/untreated plates),[2]; [12],0.9
same,average number of revertant colonies,[2]; [13],22
same,t/c (revertant colonies in treated plates/untreated plates),[2]; [13],0.9
same,average number of revertant colonies,[2]; [14],21
same,t/c (revertant colonies in treated plates/untreated plates),[2]; [14],0.9
same,average number of revertant colonies,[2]; [15],19
same,t/c (revertant colonies in treated plates/untreated plates),[2]; [15],0.8
same,effect on COX activity,[3],inhibited COX activity at all concentrations tested in a dose-dependent trend
same,"effect on glutamate-induced neurotoxicity (cell viability, MTT)",[4],partially reduced
same,genotoxic activity (Ames test),[5],For none of the samples genotoxic activity emerged
same,average number of revertant colonies,[5]; [16],190
same,t/c (revertant colonies in treated plates/untreated plates),[5]; [16],1.0
same,average number of revertant colonies,[5]; [17],194
same,t/c (revertant colonies in treated plates/untreated plates),[5]; [17],1.0
same,average number of revertant colonies,[5]; [18],193
same,t/c (revertant colonies in treated plates/untreated plates),[5]; [18],1.0
same,average number of revertant colonies,[5]; [19],189
same,t/c (revertant colonies in treated plates/untreated plates),[5]; [19],1.0
same,average number of revertant colonies,[5]; [20],195
same,t/c (revertant colonies in treated plates/untreated plates),[5]; [20],1.0
same,average number of revertant colonies,[5]; [21],157
same,t/c (revertant colonies in treated plates/untreated plates),[5]; [21],0.9
same,average number of revertant colonies,[5]; [22],169
same,t/c (revertant colonies in treated plates/untreated plates),[5]; [22],1.0
same,average number of revertant colonies,[5]; [23],164
same,t/c (revertant colonies in treated plates/untreated plates),[5]; [23],1.0
same,average number of revertant colonies,[5]; [24],169
same,t/c (revertant colonies in treated plates/untreated plates),[5]; [24],1.0
same,average number of revertant colonies,[5]; [25],180
same,t/c (revertant colonies in treated plates/untreated plates),[5]; [25],1.1
